Experimental data: patent US8192962B2, “Processes for detecting toxic substances” (Daikin Industries, Ltd., priority 2001, dated 2012)

Test system: Metabolism protein genes
Test: DNA chip mRNA expression in yeast, metabolism protein genes (Table 7)
Type: cell-based, Saccharomyces cerevisiae S288C
Experimental: Yeast (Saccharomyces cerevisiae S288C (α SUC2mal mel gap2 CUP1)) were incubated at 25° C. on YPD medium (yeast extract 1%, polypepton 2%, glucose 2%). One of toxic chemical substances was added to the cells at logarithmic growth phase, and the cells were further incubated for two hours. Cells were cultured without any chemical substance in the same condition, and were used as control. Concentrations of the chemical substances were defined to inhibit the growth of the yeast but not lead to death.
After completion of the incubation, the culture was centrifuged to collect the cells. To the cells, sodium acetate buffer (50 mM sodium acetate, 10 mM EDTA, 1% SDS) was added, and the mixture was shaken at 65° C. for five minutes, followed by returning to room temperature, and obtaining the supernatant, of which the procedures were repeated two times. To the supernatant, ½ amount of a solution of phenol/chloroform was added, and the mixture was centrifuged to give a supernatant, which was added with an equal amount of chloroform, and the mixture was centrifuged to give a supernatant. To the supernatant, an equal amount of isopropanol containing 0.3 M sodium acetate was added, and the mixture was allowed to stand at room temperature for 30 minutes, after which the mixture was centrifuged to give a sediment of the whole RNAs. Seventy % ethanol was added to the sediment, and the mixture was again centrifuged to give a sediment, which was then dried and dissolved in water. mRNA was isolated from the whole RNAs as followings. In view of the fact that a poly A chain is attached to the 3′ terminus of mRNA, a polynucleotide having a poly T structure which was immobilized on the surface of latex beads was used to trap the mRNA, and then the mRNA was washed and eluted with spine column (Oligotex-dT30<Super>mRNA Purification Kit, Takara). Reverse transcription of the mRNA was conducted with a reverse transcriptase (Super Script II Reverse Transcriptase; catalogue No. 18064-014, GibcoBRL) using fluorescence-labeled nucleotides to give cDNAs that were introduced with Cy3-dUTP or Cy5-dUTP during the reverse transcription.
The labeled cDNAs were dissolved in TE buffer (10mM Tris-HCl/1 mM EDTA, pH8.0), and the solution was dropped on the DNA chip containing the whole genes of yeast (DNA Chip Research Inc. Japan) so that the cDNAs were hybridized on the DNA chip at 65° C. for over 12 hours. The fluoresces intensity of the DNA chip was read with a scanner, and the ratio relative to the fluorescence intensity resulting from the absence of chemical substance was estimated as the following, which is shown in Tables 1 to 9: […]

## CCCCC[C@H](O)CC(=O)CCc1ccc(O)c(OC)c1 [(13), gingerol]
Yeast gene YAL012W
  The level of expressed mRNA in the presence of chemical substance/The level of expressed mRNA in the absence of chemical substance: 1.1
Yeast gene YAL038W
  The level of expressed mRNA in the presence of chemical substance/The level of expressed mRNA in the absence of chemical substance: 1.8
Yeast gene YAL044C
  The level of expressed mRNA in the presence of chemical substance/The level of expressed mRNA in the absence of chemical substance: 1.1
Yeast gene YAL054C
  The level of expressed mRNA in the presence of chemical substance/The level of expressed mRNA in the absence of chemical substance: 1.8
Yeast gene YAR071W
  The level of expressed mRNA in the presence of chemical substance/The level of expressed mRNA in the absence of chemical substance: 0.3
Yeast gene YBL001C
  The level of expressed mRNA in the presence of chemical substance/The level of expressed mRNA in the absence of chemical substance: 1.0
Yeast gene YBR003W
  level of expressed mRNA in the presence/in the absence of chemical substance: 1.2
Yeast gene YBR011C
  level of expressed mRNA in the presence/in the absence of chemical substance: 1.5
Yeast gene YBR014C
  The level of expressed mRNA in the presence of chemical substance/The level of expressed mRNA in the absence of chemical substance: 0.9
Yeast gene YBR020W
  level of expressed mRNA in the presence/in the absence of chemical substance: 1.1
Yeast gene YBR023C
  The level of expressed mRNA in the presence of chemical substance/The level of expressed mRNA in the absence of chemical substance: 0.5
Yeast gene YBR029C
  The level of expressed mRNA in the presence of chemical substance/The level of expressed mRNA in the absence of chemical substance: 1.7
Yeast gene YBR035C
  The level of expressed mRNA in the presence of chemical substance/The level of expressed mRNA in the absence of chemical substance: 1.8
Yeast gene YBR068C
  The level of expressed mRNA in the presence of chemical substance/The level of expressed mRNA in the absence of chemical substance: 2.2
Yeast gene YBR111C
  The level of expressed mRNA in the presence of chemical substance/The level of expressed mRNA in the absence of chemical substance: 1.6
Yeast gene YBR183W
  The level of expressed mRNA in the presence of chemical substance/The level of expressed mRNA in the absence of chemical substance: 1.4
Yeast gene YBR222C
  The level of expressed mRNA in the presence of chemical substance/The level of expressed mRNA in the absence of chemical substance: 1.6
Yeast gene YBR256C
  The level of expressed mRNA in the presence of chemical substance/The level of expressed mRNA in the absence of chemical substance: 3.5
Yeast gene YBR296C
  The level of expressed mRNA in the presence of chemical substance/The level of expressed mRNA in the absence of chemical substance: 2.0
Yeast gene YCL009C
  The level of expressed mRNA in the presence of chemical substance/The level of expressed mRNA in the absence of chemical substance: 1.6
Yeast gene YCL064C
  The level of expressed mRNA in the presence of chemical substance/The level of expressed mRNA in the absence of chemical substance: 1.6
Yeast gene YCR010C
  level of expressed mRNA in the presence/in the absence of chemical substance: 1.0
Yeast gene YCR034W
  level of expressed mRNA in the presence/in the absence of chemical substance: 0.2
Yeast gene YCR037C
  The level of expressed mRNA in the presence of chemical substance/The level of expressed mRNA in the absence of chemical substance: 1.3
Yeast gene YCR048W
  The level of expressed mRNA in the presence of chemical substance/The level of expressed mRNA in the absence of chemical substance: 1.3
Yeast gene YCR098C
  The level of expressed mRNA in the presence of chemical substance/The level of expressed mRNA in the absence of chemical substance: 1.4
Yeast gene YDL021W
  The level of expressed mRNA in the presence of chemical substance/The level of expressed mRNA in the absence of chemical substance: 5.3
Yeast gene YDL022W
  The level of expressed mRNA in the presence of chemical substance/The level of expressed mRNA in the absence of chemical substance: 1.5
Yeast gene YDR009W
  The level of expressed mRNA in the presence of chemical substance/The level of expressed mRNA in the absence of chemical substance: 1.2
Yeast gene YDR019C
  The level of expressed mRNA in the presence of chemical substance/The level of expressed mRNA in the absence of chemical substance: 1.0
Yeast gene YDR050C
  level of expressed mRNA in the presence/in the absence of chemical substance: 2.0
Yeast gene YDR073W
  level of expressed mRNA in the presence/in the absence of chemical substance: 0.6
Yeast gene YDR123C
  level of expressed mRNA in the presence/in the absence of chemical substance: 0.9
Yeast gene YDR178W
  level of expressed mRNA in the presence/in the absence of chemical substance: 1.5
Yeast gene YDR277C
  level of expressed mRNA in the presence/in the absence of chemical substance: 1.2
Yeast gene YDR284C
  level of expressed mRNA in the presence/in the absence of chemical substance: 1.2
Yeast gene YDR345C
  level of expressed mRNA in the presence/in the absence of chemical substance: 1.2
Yeast gene YDR400W
  level of expressed mRNA in the presence/in the absence of chemical substance: 0.7
Yeast gene YDR408C
  level of expressed mRNA in the presence/in the absence of chemical substance: 0.5
Yeast gene YDR410C
  The level of expressed mRNA in the presence of chemical substance/The level of expressed mRNA in the absence of chemical substance: 1.2
Yeast gene YDR483W
  level of expressed mRNA in the presence/in the absence of chemical substance: 1.3
Yeast gene YDR487C
  The level of expressed mRNA in the presence of chemical substance/The level of expressed mRNA in the absence of chemical substance: 1.5
Yeast gene YDR502C
  The level of expressed mRNA in the presence of chemical substance/The level of expressed mRNA in the absence of chemical substance: 1.2
Yeast gene YDR516C
  The level of expressed mRNA in the presence of chemical substance/The level of expressed mRNA in the absence of chemical substance: 2.5
Yeast gene YEL011W
  The level of expressed mRNA in the presence of chemical substance/The level of expressed mRNA in the absence of chemical substance: 1.5
Yeast gene YEL063C
  level of expressed mRNA in the presence/in the absence of chemical substance: 1.1
Yeast gene YER015W
  level of expressed mRNA in the presence/in the absence of chemical substance: 0.8
Yeast gene YER026C
  The level of expressed mRNA in the presence of chemical substance/The level of expressed mRNA in the absence of chemical substance: 1.9
Yeast gene YER053C
  The level of expressed mRNA in the presence of chemical substance/The level of expressed mRNA in the absence of chemical substance: 4.1
Yeast gene YER069W
  The level of expressed mRNA in the presence of chemical substance/The level of expressed mRNA in the absence of chemical substance: 1.4
Yeast gene YER081W
  level of expressed mRNA in the presence/in the absence of chemical substance: 0.6
Yeast gene YER096W
  The level of expressed mRNA in the presence of chemical substance/The level of expressed mRNA in the absence of chemical substance: 2.3
Yeast gene YER120W
  level of expressed mRNA in the presence/in the absence of chemical substance: 1.0
Yeast gene YER178W
  The level of expressed mRNA in the presence of chemical substance/The level of expressed mRNA in the absence of chemical substance: 2.4
Yeast gene YFL011W
  level of expressed mRNA in the presence/in the absence of chemical substance: 0.8
Yeast gene YFL030W
  The level of expressed mRNA in the presence of chemical substance/The level of expressed mRNA in the absence of chemical substance: 2.2
Yeast gene YFL031W
  The level of expressed mRNA in the presence of chemical substance/The level of expressed mRNA in the absence of chemical substance: 2.6
Yeast gene YFL056C
  The level of expressed mRNA in the presence of chemical substance/The level of expressed mRNA in the absence of chemical substance: 4.7
Yeast gene YFL057C
  The level of expressed mRNA in the presence of chemical substance/The level of expressed mRNA in the absence of chemical substance: 4.1
Yeast gene YGL012W
  level of expressed mRNA in the presence/in the absence of chemical substance: 0.3
Yeast gene YGL022W
  The level of expressed mRNA in the presence of chemical substance/The level of expressed mRNA in the absence of chemical substance: 1.0
Yeast gene YGL115W
  level of expressed mRNA in the presence/in the absence of chemical substance: 0.7
Yeast gene YGL184C
  The level of expressed mRNA in the presence of chemical substance/The level of expressed mRNA in the absence of chemical substance: 7.4
Yeast gene YGL205W
  level of expressed mRNA in the presence/in the absence of chemical substance: 1.0
Yeast gene YGL209W
  The level of expressed mRNA in the presence of chemical substance/The level of expressed mRNA in the absence of chemical substance: 1.9
Yeast gene YGL248W
  The level of expressed mRNA in the presence of chemical substance/The level of expressed mRNA in the absence of chemical substance: 2.0
Yeast gene YGR055W
  The level of expressed mRNA in the presence of chemical substance/The level of expressed mRNA in the absence of chemical substance: 1.9
Yeast gene YGR096W
  level of expressed mRNA in the presence/in the absence of chemical substance: 1.1
Yeast gene YGR191W
  level of expressed mRNA in the presence/in the absence of chemical substance: 1.0
Yeast gene YGR194C
  The level of expressed mRNA in the presence of chemical substance/The level of expressed mRNA in the absence of chemical substance: 2.2
Yeast gene YGR204W
  level of expressed mRNA in the presence/in the absence of chemical substance: 1.3
Yeast gene YGR282C
  The level of expressed mRNA in the presence of chemical substance/The level of expressed mRNA in the absence of chemical substance: 1.2
Yeast gene YGR288W
  level of expressed mRNA in the presence/in the absence of chemical substance: 1.3
Yeast gene YHR025W
  level of expressed mRNA in the presence/in the absence of chemical substance: 0.7
Yeast gene YHR111W
  The level of expressed mRNA in the presence of chemical substance/The level of expressed mRNA in the absence of chemical substance: 2.2
Yeast gene YHR123W
  level of expressed mRNA in the presence/in the absence of chemical substance: 1.5
Yeast gene YHR137W
  The level of expressed mRNA in the presence of chemical substance/The level of expressed mRNA in the absence of chemical substance: 0.6
Yeast gene YHR176W
  The level of expressed mRNA in the presence of chemical substance/The level of expressed mRNA in the absence of chemical substance: 1.9
Yeast gene YHR210C
  level of expressed mRNA in the presence/in the absence of chemical substance: 0.4
Yeast gene YIL006W
  level of expressed mRNA in the presence/in the absence of chemical substance: 0.8
Yeast gene YIL045W
  The level of expressed mRNA in the presence of chemical substance/The level of expressed mRNA in the absence of chemical substance: 2.0
Yeast gene YIL107C
  The level of expressed mRNA in the presence of chemical substance/The level of expressed mRNA in the absence of chemical substance: 1.9
Yeast gene YIL154C
  The level of expressed mRNA in the presence of chemical substance/The level of expressed mRNA in the absence of chemical substance: 1.7
Yeast gene YIL155C
  The level of expressed mRNA in the presence of chemical substance/The level of expressed mRNA in the absence of chemical substance: 2.0
Yeast gene YIL167W
  The level of expressed mRNA in the presence of chemical substance/The level of expressed mRNA in the absence of chemical substance: 1.2
Yeast gene YIR034C
  The level of expressed mRNA in the presence of chemical substance/The level of expressed mRNA in the absence of chemical substance: 2.6
Yeast gene YIR036C
  The level of expressed mRNA in the presence of chemical substance/The level of expressed mRNA in the absence of chemical substance: 1.9
Yeast gene YJL031C
  The level of expressed mRNA in the presence of chemical substance/The level of expressed mRNA in the absence of chemical substance: 2.6
Yeast gene YJL068C
  The level of expressed mRNA in the presence of chemical substance/The level of expressed mRNA in the absence of chemical substance: 2.7
Yeast gene YJL088W
  The level of expressed mRNA in the presence of chemical substance/The level of expressed mRNA in the absence of chemical substance: 1.0
